Results as given in patent publication US12486280B2, “CDK inhibitors and uses thereof” (California Institute of Technology, priority 2018, dated 2025).
pIC50, pKi: −log10 of the molar value. Read-outs that look alike come from different tables or passages of the source.

Columns and labels:
[1] = molecular target: CDK4 (Homo sapiens (Human), UniProt P11802); assay: Cdk4 and 6 Enzymatic Inhibition Assay (radiometric 33PanQinase, Ki determination); format: biochemical
Description: (§1) 10 distinct concentrations were prepared, with a dilution endpoint of 6×10^−9 M in 100% DMSO. 100% DMSO was used as a control. 10 μL from each of the serial dilutions were aliquoted into separate wells of a 96-well plate and 90 μL of water were added to each of those wells. The plate was shaken thoroughly, and 5 μL from each of the plate's wells were transferred into wells of the assay plate. The final volume of wells in the assay plate was 50 μL. A11 compounds were tested at 10 assay concentrations in the range from 2×10^−6 M to 6×10^−11 M. The final DMSO concentration in the wells of the assay plate was 1% in all cases.
(§2) A radiometric protein kinase assay (33PanQinase® Activity Assay) was used for measuring the kinase activity of six protein kinases. A11 kinase assays were performed in 96-well FlashPlates™ from PerkinElmer (Boston, MA, USA). The assay for all protein kinases contained 70 mM HEPES-NaOH pH 7.5, 3 mM MgCl2, 3 mM MnCl2, 3 μM Na-orthovanadate, 1.2 mM DTT, 50 μg/mL PEG20000, ATP [γ-33P]-ATP (approx. 9×1005 cpm per well), protein kinase and substrate. The reaction cocktails were incubated at 30° C. for 60 minutes. The reaction was stopped with 50 μL of 2% (v/v) H3PO4, and plates were aspirated and washed two times with 200 μL 0.9% (w/v) NaCl. Incorporation of ^33Pi was determined with a microplate scintillation counter (Microbeta, Wallac).

[2] = molecular target: CDK6 (Homo sapiens (Human), UniProt Q00534); assay: as above; format: biochemical
CDK6, sequence (Q00534 whole entry): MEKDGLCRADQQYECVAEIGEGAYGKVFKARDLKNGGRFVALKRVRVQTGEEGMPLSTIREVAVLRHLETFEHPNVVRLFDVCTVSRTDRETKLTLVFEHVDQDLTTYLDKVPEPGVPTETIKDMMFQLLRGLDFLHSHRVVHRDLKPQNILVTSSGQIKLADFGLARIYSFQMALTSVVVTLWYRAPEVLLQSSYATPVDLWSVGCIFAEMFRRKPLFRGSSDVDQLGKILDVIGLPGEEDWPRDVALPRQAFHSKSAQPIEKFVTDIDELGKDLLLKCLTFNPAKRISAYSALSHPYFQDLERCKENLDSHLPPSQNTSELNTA
CDK6, sequence (P24385 whole entry partner): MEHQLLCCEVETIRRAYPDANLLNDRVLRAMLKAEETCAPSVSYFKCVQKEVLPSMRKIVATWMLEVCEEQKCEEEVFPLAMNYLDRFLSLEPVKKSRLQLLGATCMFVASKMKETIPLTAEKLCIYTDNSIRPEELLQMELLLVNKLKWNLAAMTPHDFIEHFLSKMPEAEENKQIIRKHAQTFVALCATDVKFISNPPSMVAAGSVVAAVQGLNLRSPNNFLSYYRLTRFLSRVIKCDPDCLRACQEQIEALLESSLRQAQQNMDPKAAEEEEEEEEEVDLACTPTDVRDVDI
Description: as §1, §2

[3] = tested on: drug-sensitive cell lines of Table 2 (EFM-19, MDA-MB-453, T-47D, ZR-75-1, NCI-H441, OVTOKO, NCI-H1838); assay: Cell Line Growth Retardation Assay, sensitive cohort; format: cell-based, human; conditions: for pIC50: geometric mean over sensitive cohort, 6 days growth, read-out: AvgSensIC50; for Ther Window: average IC50 drug-resistant group divided by average IC50 drug-sensitive group
Description: (§3) Cells were seeded at densities of 1,000-5,000 cells per well in 48-well tissue culture plates. After a 24 hours rest period, cells were treated with compound at 10 μM, 2 μM, 0.4 μM, 0.08 μM, 0.016 μM, and 0.0032 μM. A group of cells were treated with the vehicle in which the compound was prepared and served as a control. The cells were grown in the presence of compounds for 6 days and were counted on day 0 and day 6. A11 cell counting was performed using a Synentec Cellavista plate imager. […] Growth inhibition was calculated as a ratio of cell population doublings in the presence of compound versus the absence of compound. […] IC50 values for each compound (see Table 3; reported in μM) were calculated by fitting curves to data points from each dose-response assay using the Proc NLIN function in SAS for Windows version 9.2 (SAS Institute, Inc.).
(§4) These sensitive and resistant cohorts were interrogated for response to each compound, and IC50s were calculated for each cell line using the same technique described above. Average IC50s for the sensitive and resistant cohorts were calculated as geometric means of the group. “Therapeutic Window” for each compound was calculated by dividing the average IC50 for the drug-resistant group by the average IC50 for the drug-sensitive group.

[4] = tested on: drug-resistant cell lines of Table 2 (NCI-H1437, OV207, HCC1806, NCI-H2172); assay: Cell Line Growth Retardation Assay, resistant cohort; format: cell-based, human; conditions: geometric mean over resistant cohort, 6 days growth, read-out: AvgResIC50
Description: as §3, §4

CDK4, sequence (P11802 whole entry): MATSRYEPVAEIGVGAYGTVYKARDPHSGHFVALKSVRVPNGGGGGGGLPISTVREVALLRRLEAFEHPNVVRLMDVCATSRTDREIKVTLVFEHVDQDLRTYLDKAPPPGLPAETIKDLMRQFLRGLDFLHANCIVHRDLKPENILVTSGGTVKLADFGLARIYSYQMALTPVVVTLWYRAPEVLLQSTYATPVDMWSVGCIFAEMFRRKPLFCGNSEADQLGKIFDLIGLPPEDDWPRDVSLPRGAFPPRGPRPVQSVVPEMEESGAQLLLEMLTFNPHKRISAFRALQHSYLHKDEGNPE
CDK4, sequence (P24385 whole entry partner): as the sequence (P24385 whole entry partner) above

Cc1nc2c(F)cc(-c3nc(Nc4ccc(CN5CC6(C5)CC(F)(F)C6)cn4)ncc3F)cc2n1C(C)C [Compound A64, N-(5-((6,6-difluoro-2-azaspiro[3.3]heptan-2-yl)methyl)pyridin-2-yl)-5-fluoro-4-(4-fluoro-1-isopropyl-2-methyl-1H-benzo[d]imidazol-6-yl)pyrimidin-2-amine]
pKi [1]: 9.05 | pKi [2]: 8.34 | pIC50 ([3]; Homo sapiens, […]): 6.82 | Ther Window [3]: 4.87 | pIC50 ([4]; Homo sapiens, […]): 6.14

CCOCC[C@]1(C)CN(Cc2ccc(Nc3ncc(F)c(-c4cc(F)c5nc(C)n(C(C)C)c5c4)n3)nc2)CCO1 [Compound A54]
pKi [1]: 7.57 | pKi [2]: 6.97 | pIC50 ([3]; Homo sapiens, […]): 6.00 | Ther Window [3]: 1.00 | pIC50 ([4]; Homo sapiens, […]): 6.00

Cc1nc2c(F)cc(-c3nc(Nc4ccc(CN5CCOC(C)(CC(C)N(C)C)C5)cn4)ncc3F)cc2n1C(C)C (centres unmarked) [Compound A24]
pKi [1]: 10.40 | pKi [2]: 9.80 | Ther Window [3]: 3.02 | pIC50 [3]: 7.40 | pIC50 [4]: 6.89

Cc1nc2c(F)cc(-c3nc(Nc4ccc(CN5CCO[C@@]6(CCN(C(=O)OC(C)(C)C)C6)C5)cn4)ncc3F)cc2n1C(C)C [Compound A41, tert-butyl (S)-9-((6-((5-fluoro-4-(4-fluoro-1-isopropyl-2-methyl-1H-benzo[d]imidazol-6-yl)pyrimidin-2-yl)amino)pyridin-3-yl)methyl)-6-oxa-2,9-diazaspiro[4.5]decane-2-carboxylate]
pKi [1]: 7.95 | pKi [2]: 7.13

CCCC1(C)CN(Cc2ccc(Nc3ncc(F)c(-c4cc(F)c5nc(C)n(C(C)C)c5c4)n3)nc2)CCO1 (centres unmarked) [Compound A46]
pKi [1]: 8.29 | pKi [2]: 8.71 | pIC50 ([3]; Homo sapiens, […]): 6.10 | Ther Window [3]: 1.26 | pIC50 ([4]; Homo sapiens, […]): 6.00

CCN(CC)C(=O)C[C@]1(C)CN(Cc2ccc(Nc3ncc(F)c(-c4cc(F)c5nc(C)n(C(C)C)c5c4)n3)nc2)CCO1 [Compound A57, (R)-2-(4-((6-((5-fluoro-4-(4-fluoro-1-isopropyl-2-methyl-1H-benzo[d]imidazol-6-yl)pyrimidin-2-yl)amino)pyridin-3-yl)methyl)-2-methylmorpholin-2-yl)-N,N-diethylacetamide]
pKi [1]: 8.41 | pKi [2]: 7.62 | pIC50 ([3]; Homo sapiens, […]): 6.41 | Ther Window [3]: 2.56 | pIC50 ([4]; Homo sapiens, […]): 6.00

CCN1CCN(Cc2ccc(Nc3ncc(F)c(-c4cc(F)c5nc(C)n(C(C)C)c5c4)n3)nc2)CC1 [Abemaciclib FB, Abemaciclib, reference compound]
Ther Window [3]: 6.73 | pIC50 [3]: 7.00 | pIC50 [4]: 6.17

Cc1nc2c(F)cc(-c3nc(Nc4ccc(CN5CC6(CCC6)C5)cn4)ncc3F)cc2n1C(C)C [Compound A63, N-(5-((2-azaspiro[3.3]heptan-2-yl)methyl)pyridin-2-yl)-5-fluoro-4-(4-fluoro-1-isopropyl-2-methyl-1H-benzo[d]imidazol-6-yl)pyrimidin-2-amine]
pKi [1]: 9.12 | pKi [2]: 8.50 | pIC50 ([3]; Homo sapiens, […]): 7.00 | Ther Window [3]: 5.03 | pIC50 ([4]; Homo sapiens, […]): 6.30

Cc1nc2c(F)cc(-c3nc(Nc4ccc(CN5CCOC(C)(CC(C)N(C)C)C5)cn4)ncc3F)cc2n1C(C)C (centres unmarked) [Compound A25]
pKi [1]: 9.10 | pKi [2]: 8.46 | Ther Window [3]: 6.52 | pIC50 [3]: 6.92 | pIC50 [4]: 6.10

Cc1nc2c(F)cc(-c3nc(Nc4ccc(CN5CCOC(C)(CO)C5)cn4)ncc3F)cc2n1C(C)C (centres unmarked) [Compound A51]
pKi [1]: 8.10 | pKi [2]: 7.42 | pIC50 ([3]; Homo sapiens, […]): 6.21 | Ther Window [3]: 1.62 | pIC50 ([4]; Homo sapiens, […]): 6.00

Cc1nc2c(F)cc(-c3nc(Nc4ccc(CN5CCO[C@]6(CCNC6)C5)cn4)ncc3F)cc2n1C(C)C [Compound A35]
pIC50 ([3]; Homo sapiens, […]): 6.72 | Ther Window [3]: 5.36 | pIC50 ([4]; Homo sapiens, […]): 6.00

Cc1nc2c(F)cc(-c3nc(Nc4ccc(CN5CCO[C@@]6(CCNC6)C5)cn4)ncc3F)cc2n1C(C)C [Compound A34, (R)—N-(5-((6-oxa-2,9-diazaspiro[4.5]decan-9-yl)methyl)pyridin-2-yl)-5-fluoro-4-(4-fluoro-1-isopropyl-2-methyl-1H-benzo[d]imidazol-6-yl)pyrimidin-2-amine]
pIC50 ([3]; Homo sapiens, […]): 6.70 | Ther Window [3]: 5.02 | pIC50 ([4]; Homo sapiens, […]): 6.00

Cc1nc2c(F)cc(-c3nc(Nc4ccc(CN5CCOC6(CCOC6)C5)cn4)ncc3F)cc2n1C(C)C (centres unmarked) [Compound A40]
pKi [1]: 8.64 | pKi [2]: 8.10 | pIC50 ([3]; Homo sapiens, […]): 6.35 | Ther Window [3]: 2.18 | pIC50 ([4]; Homo sapiens, […]): 6.01

Cc1nc2c(F)cc(-c3nc(Nc4ccc(CN5CCO[C@](C)(CC(=O)N6CCC6)C5)cn4)ncc3F)cc2n1C(C)C [Compound A58, (R)-1-(azetidin-1-yl)-2-(4-((6-((5-fluoro-4-(4-fluoro-1-isopropyl-2-methyl-1H-benzo[d]imidazol-6-yl)pyrimidin-2-yl)amino)pyridin-3-yl)methyl)-2-methylmorpholin-2-yl)ethan-1-one]
pKi [1]: 8.58 | pKi [2]: 7.70 | pIC50 ([3]; Homo sapiens, […]): 6.47 | Ther Window [3]: 2.94 | pIC50 ([4]; Homo sapiens, […]): 6.00

Cc1nc2c(F)cc(-c3nc(Nc4ccc(CN5CCO[C@](C)(CC(=O)N6CC(F)(F)C6)C5)cn4)ncc3F)cc2n1C(C)C [Compound A56, (R)-1-(3,3-difluoroazetidin-1-yl)-2-(4-((6-((5-fluoro-4-(4-fluoro-1-isopropyl-2-methyl-1H-benzo[d]imidazol-6-yl)pyrimidin-2-yl)amino)pyridin-3-yl)methyl)-2-methylmorpholin-2-yl)ethan-1-one]
pKi [1]: 8.62 | pKi [2]: 7.83 | pIC50 ([3]; Homo sapiens, […]): 6.59 | Ther Window [3]: 3.76 | pIC50 ([4]; Homo sapiens, […]): 6.00

Cc1nc2c(F)cc(-c3nc(Nc4ccc(CN5CCO[C@@](C)(C[C@H](C)O)C5)cn4)ncc3F)cc2n1C(C)C (single isomer, unassigned) [Compound A53]
pKi [1]: 8.60 | pKi [2]: 7.92 | pIC50 ([3]; Homo sapiens, […]): 6.68 | Ther Window [3]: 4.85 | pIC50 ([4]; Homo sapiens, […]): 6.00

Cc1nc2c(F)cc(-c3nc(Nc4ccc(CN5CCC56COC6)cn4)ncc3F)cc2n1C(C)C [Compound A61, N-(5-((6-oxa-1-azaspiro[3.3]heptan-1-yl)methyl)pyridin-2-yl)-5-fluoro-4-(4-fluoro-1-isopropyl-2-methyl-1H-benzo[d]imidazol-6-yl)pyrimidin-2-amine]
pKi [1]: 8.82 | pKi [2]: 8.02 | pIC50 ([3]; Homo sapiens, […]): 6.66 | Ther Window [3]: 4.27 | pIC50 ([4]; Homo sapiens, […]): 6.03

Cc1nc2c(F)cc(-c3nc(Nc4ccc(CN5CCO[C@]6(CCN(C(=O)OC(C)(C)C)C6)C5)cn4)ncc3F)cc2n1C(C)C [Compound A42]
pKi [1]: 8.19 | pKi [2]: 7.46

Cc1nc2c(F)cc(-c3nc(Nc4ccc(CN5CCOC(C)(CCN(C)C)C5)cn4)ncc3F)cc2n1C(C)C (centres unmarked) [Compound A4]
pKi [1]: 8.94 | pKi [2]: 8.29 | pIC50 ([3]; Homo sapiens, […]): 6.80 | Ther Window [3]: 5.80 | pIC50 ([4]; Homo sapiens, […]): 6.02

C=CC[C@@]1(C)CN(Cc2ccc(Nc3ncc(F)c(-c4cc(F)c5nc(C)n(C(C)C)c5c4)n3)nc2)CCO1 [Compound A45, (S)—N-(5-((2-allyl-2-methylmorpholino)methyl)pyridin-2-yl)-5-fluoro-4-(4-fluoro-1-isopropyl-2-methyl-1H-benzo[d]imidazol-6-yl)pyrimidin-2-amine]
pKi [1]: 8.46 | pKi [2]: 8.84 | pIC50 ([3]; Homo sapiens, […]): 6.11 | Ther Window [3]: 1.29 | pIC50 ([4]; Homo sapiens, […]): 6.00

Cc1nc2c(F)cc(-c3nc(Nc4ccc(CN5CCO[C@@](C)(C[C@@H](C)O)C5)cn4)ncc3F)cc2n1C(C)C (single isomer, unassigned) [Compound A52]
pKi [1]: 8.45 | pKi [2]: 7.81 | pIC50 ([3]; Homo sapiens, […]): 6.46 | Ther Window [3]: 2.82 | pIC50 ([4]; Homo sapiens, […]): 6.00

Cc1nc2c(F)cc(-c3nc(Nc4ccc(CN5CCOC(C)(C)C5)cn4)ncc3F)cc2n1C(C)C [Compound A48]
pKi [1]: 8.75 | pKi [2]: 8.97 | pIC50 ([3]; Homo sapiens, […]): 6.19 | Ther Window [3]: 1.56 | pIC50 ([4]; Homo sapiens, […]): 6.00
